This note sets out measurements from ChEMBL document CHEMBL1133941, “Drug design, synthesis, and evaluation of a non-sugar-based selectin antagonist” (Bioorg Med Chem Lett, 2001).

Experiment [1] has as its target T1, P-selectin (Homo sapiens) (UniProt P16109).
T1 sequence (whole entry): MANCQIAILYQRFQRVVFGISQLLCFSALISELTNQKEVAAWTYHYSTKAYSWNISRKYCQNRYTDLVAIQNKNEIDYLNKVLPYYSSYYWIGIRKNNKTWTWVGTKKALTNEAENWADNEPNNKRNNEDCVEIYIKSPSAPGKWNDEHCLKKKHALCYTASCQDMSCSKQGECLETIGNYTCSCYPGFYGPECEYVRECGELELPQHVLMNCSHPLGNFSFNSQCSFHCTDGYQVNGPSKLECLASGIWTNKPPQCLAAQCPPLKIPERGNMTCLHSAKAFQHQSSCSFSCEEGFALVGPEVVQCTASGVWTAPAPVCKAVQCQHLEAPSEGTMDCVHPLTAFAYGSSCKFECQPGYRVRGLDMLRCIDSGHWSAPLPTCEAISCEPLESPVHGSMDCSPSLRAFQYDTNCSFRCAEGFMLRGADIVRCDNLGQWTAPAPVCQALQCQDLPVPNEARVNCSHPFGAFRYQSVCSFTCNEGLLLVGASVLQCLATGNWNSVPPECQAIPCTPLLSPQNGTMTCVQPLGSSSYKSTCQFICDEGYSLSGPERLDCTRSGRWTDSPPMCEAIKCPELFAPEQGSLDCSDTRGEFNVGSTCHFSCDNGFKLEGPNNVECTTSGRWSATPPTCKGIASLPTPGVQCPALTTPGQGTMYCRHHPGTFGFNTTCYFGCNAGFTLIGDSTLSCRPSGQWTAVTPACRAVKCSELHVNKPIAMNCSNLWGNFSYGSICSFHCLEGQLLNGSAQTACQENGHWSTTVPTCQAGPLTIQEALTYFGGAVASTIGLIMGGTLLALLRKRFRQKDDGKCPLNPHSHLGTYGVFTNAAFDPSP
As to the kind of experiment: Inhibitory activity was evaluated In vitro in Selectin P mediated cell adhesion assay at a concentration of 30uM.

The nature of experiment [2]: Cell cytotoxicity of compound was evaluated In vitro in P-selectin mediated cell adhesion assay at a concentration of 30 uM. The class given is functional.
The next experiment deals with T2, P-selectin (Homo sapiens, UniProt P16109).
T2 sequence (P16109 whole entry): T1 sequence (whole entry)
Kind of experiment: Inhibitory activity of compound against Selectin P/sLex binding was determined.

Structures are written as SMILES.

Broadly, the inhibition is the relative decrease from the control value, in per cent. Regarding `CCCCCCCCCCCCCCC(CCCCCCCCCCCCCC)CNC(=O)c1cc(CSC2OC(C)C(O)C(O)C2O)cc(C(=O)NC(CCC(=O)O)C(=O)NC)c1` (centres undefined), in experiment [1], the inhibition was -0.9%. Besides, in experiment [2], the Death was 5.3%.

What is called IC50 is the concentration at which inhibition is half-maximal. Read a low IC50 as greater potency. With `CCCCCCCCCCCCCCC(CCCCCCCCCCCCCC)CNC(=O)c1cc(CSC2OC(C)C(O)C(O)C2O)cc(C(=O)O)c1` (centres undefined), the inhibition in experiment [1] turned out to be 75.7%. Also, the IC50 on P-selectin came out at 10.6 µM. Besides, the Death in experiment [2] is recorded as 1.9%.

As for `CCCCCCCCCCCCCCC(CCCCCCCCCCCCCC)CNC(=O)c1cc(CSC2OC(C)C(O)C(O)C2O)cc(C(=O)NCCC(=O)O)c1` (centres undefined), in experiment [1], the inhibition was 31.3%. The Death in experiment [2] was found to be 2.8%.

For the compound `CCCCCCCCCCCCCCC(CCCCCCCCCCCCCC)C(=O)N[C@@H](CO[C@@H]1O[C@@H](C)[C@@H](O)[C@H](O)[C@@H]1O)C(=O)N[C@@H](CCC(=O)O)C(=O)NC`, the inhibition in experiment [1] came out at 42.8%. Also, the Death in experiment [2] amounted to 1.7%.
